In data set [1] the target is T1, DNMT3A (Homo sapiens, UniProt Q9Y6K1).
T1 construct: purchased Reaction Biology Corporation
Kind of data set: HotSpot radioisotope methyltransferase inhibition assay, DNMT3A. The class given is biochemical. As to the method: The inhibition of the enzymatic activity of DNMT1, DNMT3A, and DNMT3B was tested using the HotSpotSM platform for methyltransferase assays available at Reaction Biology Corporation. HotSpotSM is a low volume radioisotope-based assay that uses tritium-labeled AdoMet (3H-SAM) as a methyl donor. The three test compounds diluted in dimethyl sulfoxide were added using acoustic technology (Echo550, Labcyte, San Jose, CA, USA) into an enzyme/substrate mixture in the nano-liter range. The corresponding reactions were commenced by adding 3H-SAM and incubated at 30 °C. Total final methylations on the substrate (Poly dI-dC in DNMT1, 3A, and 3B assays) were identified by a filter binding method implemented in Reaction Biology. Data analysis was done with Graphed Prism software (La Jolla, CA, USA) for curve fits. The enzymatic inhibition assays were carried out at 1 μM of SAM. In all assays, SAH was used as a standard positive control. The three compounds were tested first with DNMT1 at one 100 μM concentration in duplicate. […] The research group has recently contracted the screening services of Reaction Biology Corporation to identify a novel DNMTi.

Data set [2] deals with T2, DNMT3B (Homo sapiens, UniProt Q9UBC3).
T2 construct: purchased Reaction Biology Corporation
Description: HotSpot radioisotope methyltransferase inhibition assay, DNMT3B. The data set is classed as biochemical. The conditions noted are these: for inhibition of DNMT3B (in words): enzymatic inhibition assays.

The target in data set [3] is T2, DNMT3B. Details: method as in PMID 34790902. The conditions noted are these: Pappalardi et al.; cited from earlier work.
The test system of data set [4] is G9a. To be noted: Figure 1, activity as available in the literature; cited from earlier work.
Data set [5] addresses T2, DNMT3B. Further details: method as in PMID 29953809. The conditions noted are these: Figure 1, activity as available in the literature; cited from earlier work.
Data set [6] has as its target T1, DNMT3A. Further details: method as in PMID 34790902. To be noted: Pappalardi et al.; cited from earlier work.
The subject of a further data set is DNMT3B/3L. Details: method as in PMID 29953809. The conditions noted are these: Figure 1, activity as available in the literature; cited from earlier work.
Another data set concerns DNMT3A/3L. Details: method as in PMID 29953809. The conditions noted are these: Figure 1, activity as available in the literature; cited from earlier work.
Data set [7] has as its target T3, DNMT1 (Homo sapiens, UniProt P26358).
T3 construct: purchased Reaction Biology Corporation
Further details: method as in PMID 29953809. To be noted: Figure 1, activity as available in the literature; cited from earlier work.

For data set [8], the system named is human acute myeloid leukemia xenograft. Further details: method as in PMID 29953809. To be noted: human acute myeloid leukemia xenograft in a mouse model; cited from earlier work.
Data set [9] deals with T3, DNMT1. Kind of data set: HotSpot radioisotope methyltransferase inhibition assay, DNMT1. The conditions noted are these: for relative enzymatic activity of DNMT1 as percentages: 100 μM compound, mean of two measurements ± standard deviation; for IC50: 10-concentration IC50, 1 μM SAM, mean of two measurements; for DNMT1: % inhibition / inhibition at 100 µM: single concentration 100 µM, duplicate, 1 μM SAM. The class given is biochemical.

In data set [10] the test system is H3K9me2 levels in human breast adenocarcinoma (MDA-MB-231) cells. Details: method as in PMID 21780790. To be noted: read-out: potency in reducing H3K9me2 levels; cited from earlier work.
Data set [11] concerns G9a. Details: method as in PMID 21780790. The conditions noted are these: enzymatic, in vitro; cited from earlier work.
In data set [12] the test system is human breast adenocarcinoma (MDA-MB-231) cells. Details: method as in PMID 21780790. To be noted: read-out: cell toxicity EC50; cited from earlier work.

Where two headings read alike, the source gives them in different places. Some results are limits rather than exact numbers.

In general, inhibition refers to the relative decrease from the control value, in per cent. In general, EC50 refers to the concentration needed to bring the measured effect to its halfway point.

T1 sequence (Q9Y6K1 whole entry, looked up): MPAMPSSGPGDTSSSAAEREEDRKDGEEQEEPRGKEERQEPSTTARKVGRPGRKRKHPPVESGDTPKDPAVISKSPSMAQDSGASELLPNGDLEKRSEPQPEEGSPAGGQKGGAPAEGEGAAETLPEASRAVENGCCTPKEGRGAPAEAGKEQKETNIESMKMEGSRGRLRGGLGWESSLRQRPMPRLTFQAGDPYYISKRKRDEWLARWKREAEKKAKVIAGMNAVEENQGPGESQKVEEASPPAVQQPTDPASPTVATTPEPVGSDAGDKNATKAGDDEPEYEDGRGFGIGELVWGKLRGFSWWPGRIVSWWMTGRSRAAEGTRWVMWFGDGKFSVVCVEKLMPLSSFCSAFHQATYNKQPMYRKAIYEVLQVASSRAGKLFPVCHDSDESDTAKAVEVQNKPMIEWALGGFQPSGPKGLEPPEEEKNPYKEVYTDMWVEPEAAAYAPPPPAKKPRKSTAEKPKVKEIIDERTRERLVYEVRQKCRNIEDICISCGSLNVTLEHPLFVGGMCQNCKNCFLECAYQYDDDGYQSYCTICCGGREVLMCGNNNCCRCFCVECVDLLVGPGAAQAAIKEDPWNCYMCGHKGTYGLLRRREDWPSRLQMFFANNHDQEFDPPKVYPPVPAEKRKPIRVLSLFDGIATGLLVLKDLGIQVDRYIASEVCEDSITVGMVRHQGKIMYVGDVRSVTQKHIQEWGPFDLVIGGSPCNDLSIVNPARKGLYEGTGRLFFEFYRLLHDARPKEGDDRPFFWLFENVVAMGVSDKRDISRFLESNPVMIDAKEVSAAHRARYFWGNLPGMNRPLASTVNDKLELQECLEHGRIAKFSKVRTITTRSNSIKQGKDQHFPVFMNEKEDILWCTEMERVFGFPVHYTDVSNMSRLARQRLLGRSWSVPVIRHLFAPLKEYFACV
T3 sequence (P26358 whole entry): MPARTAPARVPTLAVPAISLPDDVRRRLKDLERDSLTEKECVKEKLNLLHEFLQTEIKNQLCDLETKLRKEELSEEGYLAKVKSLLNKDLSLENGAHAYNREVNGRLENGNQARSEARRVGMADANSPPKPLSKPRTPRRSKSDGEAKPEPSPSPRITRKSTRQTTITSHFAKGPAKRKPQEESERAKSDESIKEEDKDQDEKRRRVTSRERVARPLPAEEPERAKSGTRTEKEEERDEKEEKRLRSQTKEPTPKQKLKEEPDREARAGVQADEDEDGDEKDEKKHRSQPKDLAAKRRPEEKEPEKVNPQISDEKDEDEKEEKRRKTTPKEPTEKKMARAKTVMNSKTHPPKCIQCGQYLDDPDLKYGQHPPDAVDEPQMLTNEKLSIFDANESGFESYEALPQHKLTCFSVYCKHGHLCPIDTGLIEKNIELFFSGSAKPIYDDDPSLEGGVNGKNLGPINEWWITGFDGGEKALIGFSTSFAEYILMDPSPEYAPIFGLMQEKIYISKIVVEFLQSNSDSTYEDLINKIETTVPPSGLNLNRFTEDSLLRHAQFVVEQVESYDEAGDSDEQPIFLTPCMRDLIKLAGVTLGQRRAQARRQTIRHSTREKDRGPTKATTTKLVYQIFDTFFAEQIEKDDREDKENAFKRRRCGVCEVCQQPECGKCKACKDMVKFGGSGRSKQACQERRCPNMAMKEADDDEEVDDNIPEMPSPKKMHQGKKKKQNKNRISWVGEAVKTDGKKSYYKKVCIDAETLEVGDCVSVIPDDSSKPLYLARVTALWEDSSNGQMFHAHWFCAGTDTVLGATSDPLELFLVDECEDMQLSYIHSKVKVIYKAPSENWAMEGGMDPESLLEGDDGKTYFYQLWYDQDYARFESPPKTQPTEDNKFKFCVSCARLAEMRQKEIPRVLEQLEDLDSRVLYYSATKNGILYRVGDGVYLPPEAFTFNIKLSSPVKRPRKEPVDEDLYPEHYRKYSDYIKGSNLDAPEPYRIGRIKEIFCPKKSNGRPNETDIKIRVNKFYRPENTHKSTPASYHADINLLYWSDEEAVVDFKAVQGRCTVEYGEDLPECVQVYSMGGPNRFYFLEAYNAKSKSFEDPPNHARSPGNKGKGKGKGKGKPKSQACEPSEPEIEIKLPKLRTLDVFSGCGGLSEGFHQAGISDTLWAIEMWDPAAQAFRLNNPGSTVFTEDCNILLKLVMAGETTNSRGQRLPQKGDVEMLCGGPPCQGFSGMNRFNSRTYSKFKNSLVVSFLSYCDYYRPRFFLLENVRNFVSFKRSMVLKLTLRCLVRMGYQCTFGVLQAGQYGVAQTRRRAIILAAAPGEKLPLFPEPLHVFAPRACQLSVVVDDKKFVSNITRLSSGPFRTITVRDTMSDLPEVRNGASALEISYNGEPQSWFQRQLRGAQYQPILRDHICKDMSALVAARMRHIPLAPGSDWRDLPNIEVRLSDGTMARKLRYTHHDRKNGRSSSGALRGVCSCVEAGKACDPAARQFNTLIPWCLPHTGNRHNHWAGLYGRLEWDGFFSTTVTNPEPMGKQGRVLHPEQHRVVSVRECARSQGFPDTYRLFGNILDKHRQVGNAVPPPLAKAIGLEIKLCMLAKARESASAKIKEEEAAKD

`Nc1ncnc2c1ncn2[C@@H]1O[C@H](CSCC[C@H](N)C(=O)O)[C@@H](O)[C@H]1O` [SAH, S-adenosyl-L-homocysteine]: the IC50 is 0.1 µM against DNMT3A [1], 0.03 µM against DNMT3B [2] and 0.09 µM on DNMT3B [3].
For `Nc1ncn([C@@H]2O[C@H](CO)[C@@H](O)[C@H]2O)c(=O)n1` [compound 1, 5-azacitidine], in the data set with G9a [4], the IC50 is more than 10 µM.
Regarding `Nc1ncn([C@H]2C[C@H](O)[C@@H](CO)O2)c(=O)n1` [compound 2, 5-aza-2′-deoxycytidine], the IC50 with G9a [4] was more than 10 µM.
Consider `Cc1cc(Nc2ccc(NC(=O)c3ccc(Nc4ccnc5ccccc45)cc3)cc2)nc(N)n1` [compound 3], for which the figures for the IC50 with G9a [4] and at DNMT3B [3] were more than 10 µM and 7 µM, respectively.
Regarding `COc1ccc(Cl)cc1C(=O)NCCc1ccc(S(=O)(=O)NC(=O)NC2CCCCC2)cc1` [compound 4, Glyburide], the IC50 on DNMT3B [5] was more than 100 µM.
In the case of `CCc1c(C#N)c(SC(C(N)=O)c2ccccc2)nc(N2CCC(N)CC2)c1C#N` (stereo not drawn) [compound 5], at DNMT3A [6], the “inhibition of DNMT3A (in words)” value is recorded as “did not inhibit”. Further, the IC50 with DNMT3B/3L and in the data set on DNMT3A/3L was more than 100 µM throughout. Moreover, the “inhibition of DNMT3B (in words)” value on DNMT3B [3] was “did not inhibit”.
For `C[C@@H]1O[C@@H](CC(=O)O)CC2=C1C(=O)c1c(O)cccc1C2=O` [compound 6, nanaomycin A], the IC50 on DNMT1 [7] is more than 10 µM.
Regarding `COc1cc2c(NC3CCN(C(C)C)CC3)cc(C3CCCCC3)nc2cc1OCCCN1CCCC1` [compound 7], in the data set on G9a [4], the IC50 was 0.0007 µM.
Turning to `COc1cc2c(NC3CCN(C)CC3)cc(-c3ccc(C)o3)nc2cc1OCCCN1CCCC1` [compound 8], the tumor growth inhibition in data set [8] is on record as 70%.
For `COc1cc2nc(N3CCCN(C)CC3)nc(NC3CCN(Cc4ccccc4)CC3)c2cc1OC` [compound 9], on DNMT1 [7], the IC50 is more than 10 µM.
For `COc1cc2c(NC3CCN(C(C)C)CC3)nc(N3CCC(F)(F)CC3)nc2cc1OCCCN1CCCC1` [compound 11], the IC50 on DNMT1 [7] is more than 50 µM.
For the molecule `COc1cc2c(NC3CCN(C4CCCCC4)CC3)nc(N3CCCN(C(C)C)CC3)nc2cc1OCCCN1CCCCC1` [compound 12], the “relative enzymatic activity of DNMT1 as percentages” value at DNMT1 [9] stood at 0.3 ± 0.10%. In addition, the IC50 was 30 nM against DNMT1 [9]; 4.87 µM at DNMT3A [1]; more than 100 µM at DNMT3B [2] (read-out: DNMT3B IC50); 26 nM in data set [10]; 6 nM with G9a [11]. Also, at DNMT1 [9], the “DNMT1: % inhibition” value stood at 99.7%. The molecule also registered an inhibition at 100 µM on DNMT1 [9] of more than 99%. The “inhibition of DNMT3B (in words)” value on DNMT3B [2] is “none of them inhibited”. The EC50 in [12] is 3.3 µM.
On to `COc1cc2c(NC3CCN(CC4CCCCC4)CC3)nc(N3CCCN(C(C)C)CC3)nc2cc1OCCCN1CCCCC1` [compound 13], for which the “relative enzymatic activity of DNMT1 as percentages” value on DNMT1 [9] came out at 0.7 ± 0.02%. Further, the IC50 against DNMT1 [9] is 81 nM; at DNMT3A [1], 14.7 µM; at DNMT3B [2] (read-out: DNMT3B IC50), more than 100 µM; in data set [10], 25 nM; in the data set on G9a [11] it was 4 nM. The “DNMT1: % inhibition” value on DNMT1 [9] was found to be 99.3%. Further, the inhibition at 100 µM against DNMT1 [9] was more than 99%. In addition, on DNMT3B [2], the “inhibition of DNMT3B (in words)” value is on record as “none of them inhibited”. Also, in [12], the EC50 was 2.8 µM.
For the molecule `COc1cc2c(Nc3ccc(NC(=O)c4ccccc4)cc3)ncnc2cc1OCCCN1CCOCC1` [compound 14], at DNMT1 [9], the “relative enzymatic activity of DNMT1 as percentages” value is reported as 92.6 ± 2.40% and the inhibition at 100 µM was 7.4%.
